Results from patent publication US9023789B2, “Amylin analogs and pharmaceutical compositions thereof” (Novo Nordisk A/S, priority 2012, dated 2015).
Values after ≈ are worked out from the molar mass of the structure shown. Read-outs that look alike come from different tables or passages of the source. Numbered stars: 1 amine (or outer) side, 2 acyl side, 3 side chain; on linkers, the order of the positions; unused ones are H or OH. Bridge positions count the residues as written; N and C are the ends. Peptide text beside a SMILES is read from it. * marks the point of attachment. C20 diacid = O=C(O)CCCCCCCCCCCCCCCCCCC(=O)*; γGlu = O=C(O)[C@H](CCC(=O)[*:2])N[*:1]; AEEA = NCCOCCOCC(=O)O

Assays:
[1] = ASSAY (III) ThT fibrillation assay for physical stability; assay type: physicochemical
Outline: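 Physical stability scored by ThT fluorescence (444 nm excitation, 485 nm emission) tracked every 20 min during 37 °C incubation with 960 rpm shaking, ThT at 1 μM final. Values are replicate means with SD at chosen times; HPLC against pramlintide standard gives initial and post-assay soluble concentrations.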

[2] = ASSAY (IV) determination of solubility; assay type: physicochemical
Outline: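 UPLC read-out of polypeptide concentration after centrifugation. Samples: aqueous polypeptide stock ([…]) + 100 mM buffer 1:1, glycylglycine pH 3.0–5.0 or bistrispropane pH 6.0–8.0; 18 h, RT.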

[3] = bistrispropane buffer, pH 6.5, read-out: Solubility pH 6.5 Concentration
[4] = bistrispropane buffer, pH 7.5, read-out: Solubility pH 7.5 Concentration
[5] = bistrispropane buffer, pH 6.0, read-out: Solubility pH 6.0 Concentration
[6] = bistrispropane buffer, pH 7.0, read-out: Solubility pH 7.0 Concentration
[7] = bistrispropane buffer, pH 8.0, read-out: Solubility pH 8.0 Concentration
[8] = glycylglycine buffer, pH 3.0, read-out: Solubility pH 3.0 Concentration
[9] = glycylglycine buffer, pH 4.0, read-out: Solubility pH 4.0 Concentration
[10] = glycylglycine buffer, pH 5.0, read-out: Solubility pH 5.0 Concentration

Row | SMILES | ThT pH 4.0 lag time (h) [1] [h] | solubility at 18 h [2, 3] [µM] | solubility at 18 h [2, 4] [µM] | solubility at 18 h [2, 5] [µM] | solubility at 18 h [2, 6] [µM] | solubility at 18 h [2, 7] [µM] | solubility at 18 h [2, 8] [µM] | solubility at 18 h [2, 9] [µM] | solubility at 18 h [2, 10] [µM]
1 | CC[C@H](C)[C@H](NC(=O)[C@H](C)NC(=O)CNC(=O)[C@H](Cc1ccccc1)NC(=O)[C@H](CC(N)=O)NC(=O)[C@@H]1CCCN1C(=O)[C@H](CO)NC(=O)[C@H](CO)NC(=O)[C@H](Cc1c[nH]cn1)NC(=O)[C@H](CCCNC(=N)N)NC(=O)[C@H](CC(C)C)NC(=O)[C@H](Cc1ccccc1)NC(=O)[C@H](CCC(=O)O)NC(=O)[C@H](C)NC(=O)[C@H](CC(C)C)NC(=O)[C@H](CCCNC(=N)N)NC(=O)[C@H](CCC(N)=O)NC(=O)[C@@H](NC(=O)[C@H](C)NC(=O)[C@@H]1CSSC[C@H](NC(=O)[C@H](CCCCN)NC(=O)CC[C@H](NC(=O)CCCCCCCCCCCCCCCCCCC(=O)O)C(=O)O)C(=O)N[C@@H](CC(N)=O)C(=O)N[C@@H]([C@@H](C)O)C(=O)N[C@@H](C)C(=O)N[C@@H]([C@@H](C)O)C(=O)N1)[C@@H](C)O)C(=O)N1CCC[C@H]1C(=O)N[C@@H](CO)C(=O)N[C@@H](CO)C(=O)N[C@H](C(=O)N[C@@H](CC(N)=O)C(=O)N[C@H](C(=O)NCC(=O)N[C@@H](CO)C(=O)N[C@@H](Cc1c[nH]cn1)C(=O)N[C@H](C(=O)N[C@@H](Cc1ccc(O)cc1)C(N)=O)[C@@H](C)O)C(C)C)[C@@H](C)O [Example 18] ({C20 diacid-γGlu}-KCNTATCATQRLAEFLRHSSPNFGAIPSSTNVGSHTY-NH2; disulfide 2-7) | 45 | ≥ 200 | 122 (≈ 539 µg/mL) | ≥ 200 | 177 (≈ 782 µg/mL) | 111 (≈ 491 µg/mL) | ≥ 200 | ≥ 200 | ≥ 200
2 | CC[C@H](C)[C@H](NC(=O)[C@H](C)NC(=O)CNC(=O)[C@H](Cc1ccccc1)NC(=O)[C@H](CC(N)=O)NC(=O)[C@@H]1CCCN1C(=O)[C@H](CO)NC(=O)[C@H](CO)NC(=O)[C@H](Cc1c[nH]cn1)NC(=O)[C@H](CCCNC(=N)N)NC(=O)[C@H](CC(C)C)NC(=O)[C@H](Cc1ccccc1)NC(=O)[C@H](CCC(=O)O)NC(=O)[C@H](C)NC(=O)[C@H](CC(C)C)NC(=O)[C@H](CCCNC(=N)N)NC(=O)[C@H](CCC(N)=O)NC(=O)[C@@H](NC(=O)[C@H](C)NC(=O)[C@@H]1CSSC[C@H](NC(=O)[C@H](CCCCN)NC(=O)COCCOCCNC(=O)COCCOCCNC(=O)CC[C@H](NC(=O)CCCCCCCCCCCCCCCCCCC(=O)O)C(=O)O)C(=O)N[C@@H](CC(N)=O)C(=O)N[C@@H]([C@@H](C)O)C(=O)N[C@@H](C)C(=O)N[C@@H]([C@@H](C)O)C(=O)N1)[C@@H](C)O)C(=O)N1CCC[C@H]1C(=O)N[C@@H](CO)C(=O)N[C@@H](CO)C(=O)N[C@H](C(=O)N[C@@H](CC(N)=O)C(=O)N[C@H](C(=O)NCC(=O)N[C@@H](CO)C(=O)N[C@@H](CC(N)=O)C(=O)N[C@H](C(=O)N[C@@H](Cc1ccc(O)cc1)C(N)=O)[C@@H](C)O)C(C)C)[C@@H](C)O [Example 19] | 9 | ≥ 200 | ≥ 200 | ≥ 200 | ≥ 200 | ≥ 200 | ≥ 200 | ≥ 200 | ≥ 200
3 | CC[C@H](C)[C@H](NC(=O)[C@H](C)NC(=O)CNC(=O)[C@H](Cc1ccccc1)NC(=O)[C@H](CC(N)=O)NC(=O)[C@@H]1CCCN1C(=O)[C@H](CO)NC(=O)[C@H](CO)NC(=O)[C@H](Cc1c[nH]cn1)NC(=O)[C@H](CCCNC(=N)N)NC(=O)[C@H](CC(C)C)NC(=O)[C@H](Cc1ccccc1)NC(=O)[C@H](CCC(=O)O)NC(=O)[C@H](C)NC(=O)[C@H](CC(C)C)NC(=O)[C@H](CCCNC(=N)N)NC(=O)[C@H](CCC(N)=O)NC(=O)[C@@H](NC(=O)[C@H](C)NC(=O)[C@@H]1CSSC[C@H](NC(=O)[C@H](CCCCN)NC(=O)COCCOCCNC(=O)COCCOCCNC(=O)CC[C@H](NC(=O)CCCCCCCCCCCCCCCCCCC(=O)O)C(=O)O)C(=O)N[C@@H](CC(N)=O)C(=O)N[C@@H]([C@@H](C)O)C(=O)N[C@@H](C)C(=O)N[C@@H]([C@@H](C)O)C(=O)N1)[C@@H](C)O)C(=O)N1CCC[C@H]1C(=O)N[C@@H](CO)C(=O)N[C@@H](CO)C(=O)N[C@H](C(=O)N[C@@H](CC(N)=O)C(=O)N[C@H](C(=O)NCC(=O)N[C@@H](CO)C(=O)N[C@@H](CC(N)=O)C(=O)N[C@H](C(=O)N1CCC[C@H]1C(N)=O)[C@@H](C)O)C(C)C)[C@@H](C)O [Example 20] ({C20 diacid-γGlu-AEEA-AEEA}-KCNTATCATQRLAEFLRHSSPNFGAIPSSTNVGSNTP-NH2; disulfide 2-7) | 45 | ≥ 200 | ≥ 200 | ≥ 200 | ≥ 200 | ≥ 200 | ≥ 200 | ≥ 200 | ≥ 200
4 | CC[C@H](C)[C@H](NC(=O)[C@H](C)NC(=O)CNC(=O)[C@H](Cc1ccccc1)NC(=O)[C@H](CC(N)=O)NC(=O)[C@@H]1CCCN1C(=O)[C@H](CO)NC(=O)[C@H](CO)NC(=O)[C@H](Cc1c[nH]cn1)NC(=O)[C@H](CCCNC(=N)N)NC(=O)[C@H](CC(C)C)NC(=O)[C@H](Cc1ccccc1)NC(=O)[C@H](CCC(=O)O)NC(=O)[C@H](C)NC(=O)[C@H](CC(C)C)NC(=O)[C@H](CCCNC(=N)N)NC(=O)[C@H](CCC(N)=O)NC(=O)[C@@H](NC(=O)[C@H](C)NC(=O)[C@@H]1CSSC[C@H](NC(=O)[C@H](CCCCN)NC(=O)CC[C@H](NC(=O)CCCCCCCCCCCCCCCCCCC(=O)O)C(=O)O)C(=O)N[C@@H](CC(N)=O)C(=O)N[C@@H]([C@@H](C)O)C(=O)N[C@@H](C)C(=O)N[C@@H]([C@@H](C)O)C(=O)N1)[C@@H](C)O)C(=O)N1CCC[C@H]1C(=O)N[C@@H](CO)C(=O)N[C@@H](CO)C(=O)N[C@H](C(=O)N[C@@H](CC(N)=O)C(=O)N[C@H](C(=O)NCC(=O)N[C@@H](CO)C(=O)N[C@@H](CCC(=O)O)C(=O)N[C@H](C(=O)N[C@@H](Cc1ccc(O)cc1)C(N)=O)[C@@H](C)O)C(C)C)[C@@H](C)O [Example 22] ({C20 diacid-γGlu}-KCNTATCATQRLAEFLRHSSPNFGAIPSSTNVGSETY-NH2; disulfide 2-7) | 45 | ≥ 200 | ≥ 200 | 195 (≈ 860 µg/mL) | ≥ 200 | ≥ 200 | ≥ 200 | ≥ 200 | ≥ 200
5 | CC[C@H](C)[C@H](NC(=O)[C@H](C)NC(=O)CNC(=O)[C@H](Cc1ccccc1)NC(=O)[C@H](CC(N)=O)NC(=O)[C@@H]1CCCN1C(=O)[C@H](CO)NC(=O)[C@H](CO)NC(=O)[C@H](Cc1c[nH]cn1)NC(=O)[C@H](CCCNC(=N)N)NC(=O)[C@H](CC(C)C)NC(=O)[C@H](Cc1ccccc1)NC(=O)[C@H](CC(N)=O)NC(=O)[C@H](C)NC(=O)[C@H](CC(C)C)NC(=O)[C@H](CCCNC(=N)N)NC(=O)[C@H](CCC(N)=O)NC(=O)[C@@H](NC(=O)[C@H](C)NC(=O)[C@@H]1CSSC[C@H](NC(=O)[C@H](CCCCN)NC(=O)CC[C@H](NC(=O)CCCCCCCCCCCCCCCCCCC(=O)O)C(=O)O)C(=O)N[C@@H](CC(N)=O)C(=O)N[C@@H]([C@@H](C)O)C(=O)N[C@@H](C)C(=O)N[C@@H]([C@@H](C)O)C(=O)N1)[C@@H](C)O)C(=O)N1CCC[C@H]1C(=O)N[C@@H](CO)C(=O)N[C@@H](CO)C(=O)N[C@H](C(=O)N[C@@H](CC(N)=O)C(=O)N[C@H](C(=O)NCC(=O)N[C@@H](CO)C(=O)N[C@@H](CCC(=O)O)C(=O)N[C@H](C(=O)N[C@@H](Cc1ccc(O)cc1)C(N)=O)[C@@H](C)O)C(C)C)[C@@H](C)O [Example 23] | 3 | ≥ 200 | ≥ 200 | ≥ 200 | ≥ 200 | ≥ 200 | ≥ 200 | ≥ 200 | ≥ 200
6 | CC[C@H](C)[C@H](NC(=O)[C@H](C)NC(=O)CNC(=O)[C@H](Cc1ccccc1)NC(=O)[C@H](CC(N)=O)NC(=O)[C@@H]1CCCN1C(=O)[C@H](CO)NC(=O)[C@H](CO)NC(=O)[C@H](Cc1c[nH]cn1)NC(=O)[C@H](CCCNC(=N)N)NC(=O)[C@H](CC(C)C)NC(=O)[C@H](Cc1ccccc1)NC(=O)[C@H](CC(N)=O)NC(=O)[C@H](C)NC(=O)[C@H](CC(C)C)NC(=O)[C@H](CCCNC(=N)N)NC(=O)[C@H](CCC(N)=O)NC(=O)[C@@H](NC(=O)[C@H](C)NC(=O)[C@@H]1CSSC[C@H](NC(=O)[C@@H](N)CCCCNC(=O)COCCOCCNC(=O)COCCOCCNC(=O)CC[C@H](NC(=O)CCCCCCCCCCCCCCCCCCC(=O)O)C(=O)O)C(=O)N[C@@H](CC(N)=O)C(=O)N[C@@H]([C@@H](C)O)C(=O)N[C@@H](C)C(=O)N[C@@H]([C@@H](C)O)C(=O)N1)[C@@H](C)O)C(=O)N1CCC[C@H]1C(=O)N[C@@H](CO)C(=O)N[C@@H](CO)C(=O)N[C@H](C(=O)N[C@@H](CC(N)=O)C(=O)N[C@H](C(=O)NCC(=O)N[C@@H](CO)C(=O)N[C@@H](CCC(=O)O)C(=O)N[C@H](C(=O)N[C@@H](Cc1ccc(O)cc1)C(N)=O)[C@@H](C)O)C(C)C)[C@@H](C)O [Example 25] | 2 | ≥ 200 | ≥ 200 | ≥ 200 | ≥ 200 | ≥ 200 | ≥ 200 | ≥ 200 | ≥ 200
